What is called solubility is the dissolved amount per volume that the medium holds. The low end stands for a poorly soluble substance, the high end for a readily soluble substance. For orientation: Ki means the equilibrium dissociation constant of an inhibitor or competing ligand from its target. Read a high Ki as lower affinity. What is called bioavailability is the share of a dose that reaches the circulation, judged against a reference dose that is usually intravenous. A high value points to much systemic uptake.

The test system of one series is Caco-2. The conditions noted are these: Homo sapiens.
A further series can be described thus: physchem. As to conditions: buffer, pH 7.4.
A further series has as its target Glutamate NMDA receptor. In kind it is cell membranes, Membrane.
A short description of series [1]: Oral bioavailability in rat. The conditions noted are these: in vivo.

Description for Caco-2: Cellular permeability in Caco-2 cells.
Description for Glutamate NMDA receptor: Affinity for glycine site of NMDA receptor on rat brain membranes by displacement of [3H]- MDL 105,519.

In turn, `CCCC(c1ccncc1)n1[nH]c(=O)c2nc3cc(Cl)ccc3c(O)c2c1=O.CS(=O)(=O)O` (stereo not drawn) gave a Permeability in the series with Caco-2 of 1.6e-05. In the series “physchem”, this compound gave a solubility of more than 220 µg/mL. The Ki at Glutamate NMDA receptor amounted to 4.34 µM.

For `O=c1[nH]n(Cc2ccncc2)c(=O)c2c(=O)c3ccc(Cl)cc3[nH]c12`, the bioavailability in series [1] was found to be 5%. The compound also gave a Permeability in the series on Caco-2 of 2e-07.

`O=c1[nH]n(Cc2cc[n+]([O-])cc2)c(=O)c2c(O)c3ccc(Cl)cc3nc12` yielded a Permeability in the series with Caco-2 of 5e-07. The solubility in “physchem” was more than 160 µg/mL. The compound further came in with a Ki on Glutamate NMDA receptor of 0.439 µM.

In turn, `CC(c1ccncc1)n1[nH]c(=O)c2[nH]c3cc(Cl)ccc3c(=O)c2c1=O.CS(=O)(=O)O` (stereo not drawn) showed a bioavailability in series [1] of 30%. Also, the Permeability in the series on Caco-2 worked out at 5.8e-06.

In the series on Caco-2, `CC(C)CC(c1ccncc1)n1[nH]c(=O)c2nc3cc(Cl)ccc3c(O)c2c1=O.CS(=O)(=O)O` (stereo not drawn) displayed a Permeability of 1.1e-05. For the same compound, in the series “physchem”, the solubility was more than 170 µg/mL. Besides, at Glutamate NMDA receptor, the Ki stood at 5.23 µM.

For the compound `CCC(c1ccccn1)n1[nH]c(=O)c2nc3cc(Cl)ccc3c(O)c2c1=O` (stereo not drawn), on Glutamate NMDA receptor, the Ki is 2.36 µM.

As for `CCCCC(c1ccccn1)n1[nH]c(=O)c2nc3cc(Cl)ccc3c(O)c2c1=O.CS(=O)(=O)O` (stereo not drawn), the Permeability in the series with Caco-2 turned out to be 1.6e-05. The compound also displayed a solubility in “physchem” of more than 220 µg/mL. This compound yielded a Ki on Glutamate NMDA receptor of more than 10 µM.

In the case of `CS(=O)(=O)O.O=c1[nH]n(C(c2ccccn2)C2CC2)c(=O)c2c(O)c3ccc(Cl)cc3nc12` (stereo not drawn), the Permeability in the series on Caco-2 came to 9.8e-06. Besides, in “physchem”, the solubility stood at 490 µg/mL. Besides, the Ki at Glutamate NMDA receptor stood at 0.996 µM.

In turn, `CS(=O)(=O)O.O=c1[nH]n(C(c2ccccc2)c2ccncc2)c(=O)c2c(O)c3ccc(Cl)cc3nc12` (stereo not drawn) returned a Permeability in the series with Caco-2 of 4e-06. In the series “physchem”, the solubility is 130 µg/mL. The same compound showed a Ki at Glutamate NMDA receptor of more than 10 µM.

Compound `CCC(c1ccncc1)n1[nH]c(=O)c2[nH]c3cc(Cl)ccc3c(=O)c2c1=O.CS(=O)(=O)O` (stereo not drawn) showed a bioavailability in series [1] of 17%. The compound further yielded a Permeability with Caco-2 of 1.1e-05. Besides, in the series “physchem”, the solubility is more than 200 µg/mL.

`CS(=O)(=O)O.O=c1[nH]n(C(c2ccccn2)C2CCCC2)c(=O)c2c(O)c3ccc(Cl)cc3nc12` (stereo not drawn): the Permeability in the series on Caco-2 stood at 5.6e-06. In “physchem”, this compound registered a solubility of more than 170 µg/mL. At Glutamate NMDA receptor, this compound gave a Ki of more than 10 µM.

On to `CC(c1cc[n+]([O-])cc1)n1[nH]c(=O)c2nc3cc(Cl)ccc3c(O)c2c1=O` (stereo not drawn), for which affinity on Glutamate NMDA receptor was put at a Ki of 2.42 µM.

With `CC(C)CC(c1ccccn1)n1[nH]c(=O)c2nc3cc(Cl)ccc3c(O)c2c1=O.CS(=O)(=O)O` (stereo not drawn), the Permeability in the series on Caco-2 was found to be 9.1e-06. The same compound came in with a solubility in “physchem” of more than 130 µg/mL. This compound also gave a Ki on Glutamate NMDA receptor of more than 10 µM.

The values above are taken from ChEMBL document CHEMBL1136832, “Synthesis of 7-chloro-2,3-dihydro-2-[1-(pyridinyl)alkyl]-pyridazino[4,5-b]quinoline-1,4,10(5H)-triones as NMDA glycine-site antagonists” (Bioorg Med Chem Lett, 2003).
